Tests used:
Akt(T308) = assay: Phospho-Akt(T308) in PC3 cell lysates, MSD; type: cell-based, human; settings: PC3, 1 hour exposure; read-out: p-Akt(T308) IC50
Text: The direct substrate for TORC1 was 4E-BP 1(T46) and indirect downstream substrate was S6RP(S235/S236). The direct substrate for TORC2 was Akt(S473) and indirect downstream substrates measured were GSK3β(S9) and PRAS40(T246). Additionally, the phosphorylation status of Akt(T308), a phosphorylation site for PDK1 was monitored.
MSD® biomarker detection assays provide a rapid and convenient method for measuring the total and phosphorylated levels of protein targets within a single small volume sample. These assays are available in both single-plex and multiplex formats. In a single-plex assay, an antibody for a specific protein target is coated on one electrode (or spot) per well. […] MSD Read Buffer that provides the appropriate chemical environment for ECL is added and the plate is read using an MSD SECTOR™ Imager. […] The instrument measures intensity of the emitted light to afford a quantitative measure of the amount of phosphorylated Akt or S6RP present in the sample. […]
The assay plate was incubated with 150 μL of MSD Blocker A Solution for 1 hour with shaking at room temperature. […] Then 150 μL of 1×MSD Read Buffer T was added to each well. The plate was read on the SECTOR Imager plate reader. The Excel data was transferred to Activity Base and IC50 values were calculated.
All data was analyzed using XLfit from IDBS. […]

Ki-67 = Ki-67 immunohistochemistry in PC3 tumors (Compound 1); type: in vivo, SCID mice; settings: 25 mg/kg oral QD for 6 days, 2 hours after last dose
Protocol: (§1) Two hours after the last dose of either vehicle, Compound 1, or rapamycin, the mice were euthanized and the tumors were dissected. The tumors were snap frozen in liquid nitrogen and processed for immunohistochemistry (IHC) and TUNEL.
(§2) Five to ten micron thick cryostat sections of tumor samples were used for IHC. The expression of a cell proliferation marker Ki-67 was evaluated by IHC using anti-Ki-67 antibody. Anti-CD-31 antibody was used to determine blood vessel density and is a measurement of tumor angiogenesis. Frozen sections were fixed in 4% paraformaldehyde for 10 minutes at room temperature, washed in PBS, blocked and permeabilized with normal goat serum and triton x-100. Sections were then incubated with primary antibody (overnight) followed by incubation with secondary antibody (60 minutes). […] The sections were visualized with a Nikon E800 microscope equipped with fluorescence detection equipment and a digital camera attached to a computer.
(§3) The tissues sections processed for apoptosis or immunostained for proliferating cells (Ki-67) or blood vessels were quantitated using Metamorph software. Using 20× objective, 5 different fields from each section, 2 to 4 sections from each tumor, and 3 to 4 tumors from each treatment group or control were used for quantitation. The area of interest was expressed as the percent threshold area of the total area.

CD-31 = CD-31 immunohistochemistry in PC3 tumors (Compound 1); type: in vivo, SCID mice; settings: 25 mg/kg oral QD for 6 days, 2 hours after last dose
Protocol: as §1, §2, §3

Ki67 = Ki67 immunohistochemistry in PC3 tumors (Compound 2); type: in vivo, SCID mice; settings: 5 mg/kg oral QD for 6 days, 2 hours after last dose

SMILES | IC50 (Akt(T308)) | reduction in the number of proliferating cells (Ki-67) vs vehicle (Ki-67) | CD-31 positive blood vessels vs vehicle (CD-31) | reduction in the number of proliferating cells (Ki67) vs vehicle (Ki67)
CO[C@H]1CC[C@H](N2C(=O)CNc3ncc(-c4ccc(C(C)(C)O)nc4)nc32)CC1 [Compound 1, 7-(6-(2-hydroxypropan-2-yl)pyridin-3-yl)-1-((1r,4r)-4-methoxycyclohexyl)-3,4-dihydropyrazino-[2,3-b]pyrazin-2(1H)-one] | 130 nM | 84% | significantly (p<0.01) fewer | 
CCN1C(=O)CNc2ncc(-c3ccc(-c4nc[nH]n4)nc3C)nc21 [Compound 2, 1-ethyl-7-(2-methyl-6-(1H-1,2,4-triazol-3-yl)pyridin-3-yl)-3,4-dihydropyrazino[2,3-b]pyrazin-2(1H)-one] |  |  |  | 93%
